Assay results from patent US11471422B2, “Stealth, targeted nanoparticles (STN) for oral drug delivery” (priority 2014, dated 2022).
Read-outs that look alike come from different tables or passages of the source.

How the values were obtained:
Conditions in all cases: in vivo
[1] = Percentage bioavailability vs time profile of Nutraceutical 1 from coated STN (FIG. 6)
[2] = Percentage cumulative bioavailability vs time profile of two antibiotics from coated STN (FIG. 4)
[3] = Percentage bioavailability vs time profile of anticancer drug from coated STN (FIG. 5)
Source text: FIG. 5: Percentage Bioavailability vs time profile of anticancer drug (docetaxel) from coated STN indicating >90% release after 9 hr against conventional oral form with <10% bioavailability

SMILES: COC1=C(OC)C(=O)C(C/C=C(\C)CC/C=C(\C)CC/C=C(\C)CC/C=C(\C)CC/C=C(\C)CC/C=C(\C)CC/C=C(\C)CC/C=C(\C)CC/C=C(\C)CCC=C(C)C)=C(C)C1=O [Coenzyme Q 10]
- bioavailability at 6 hrs ([1]; oral, from coated STN, at 6 hrs): > 80%
- bioavailability ([1]; conventional formulations): < 15%

SMILES: CO/N=C(\C(=O)N[C@@H]1C(=O)N2C(C(=O)O)=C(CSc3nc(=O)c(=O)[nH]n3C)CS[C@H]12)c1csc(N)n1 [ceftriaxone]
- bioavailability at 7 hr ([2]; po): > 100%

SMILES: CC(=O)O[C@@]12CO[C@@H]1C[C@H](O)[C@@]1(C)C(=O)[C@H](O)C3=C(C)[C@@H](OC(=O)[C@H](O)[C@@H](NC(=O)OC(C)(C)C)c4ccccc4)C[C@@](O)([C@@H](OC(=O)c4ccccc4)[C@H]21)C3(C)C [docetaxel]
- bioavailability at 9 hr ([3]; oral, from coated STN, after 9 hr (printed as release)): > 90%
- bioavailability ([3]; conventional oral form): < 10%

SMILES: CC1(C)[C@H](C(=O)O)N2C(=O)C[C@H]2S1(=O)=O [sulbactam]
- bioavailability at 7 hr ([2]; from coated STN, STN oral delivery, at 7 hr, read-out: Percentage cumulative bioavailability): > 100%
